Results from PubChem BioAssay AID2060612 (Molecular Pharmacology Branch, DTP, NCI, 2025).

Tested on: 565232-114-T-J1-PDC complex spheroid viability
Assay: Anticancer human tumor 565232-114-T-J1-PDC patient-derived bladder carcinoma cell line growth inhibition [CLK]
Conditions: for IC50: curve of first compound; for viability, T/C: stronger effect = lower value
How it was run: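 Multi-cell-type spheroids combined patient-derived tumor cells with HUVEC endothelial cells and human mesenchymal stem cells. Paired agents were dosed in half-log steps down from about clinical Cmax, or from 10 microM where Cmax was unknown.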

[1] = second compound 0.0316 µM, first compound 0.0316 µM
[2] = second compound 0.0316 µM, first compound 0.1 µM
[3] = second compound 0.0316 µM, first compound 0.316 µM
[4] = second compound 0.0316 µM, first compound 1 µM
[5] = second compound 0.0316 µM, first compound 3.16 µM
[6] = second compound 0.0316 µM, first compound 10 µM
[7] = second compound 0.1 µM, first compound 0.0316 µM
[8] = second compound 0.1 µM, first compound 0.1 µM
[9] = second compound 0.1 µM, first compound 0.316 µM
[10] = second compound 0.1 µM, first compound 1 µM
[11] = second compound 0.1 µM, first compound 3.16 µM
[12] = second compound 0.1 µM, first compound 10 µM
[13] = second compound 0.316 µM, first compound 0.0316 µM
[14] = second compound 0.316 µM, first compound 0.1 µM
[15] = second compound 0.316 µM, first compound 0.316 µM
[16] = second compound 0.316 µM, first compound 1 µM
[17] = second compound 0.316 µM, first compound 3.16 µM
[18] = second compound 0.316 µM, first compound 10 µM
[19] = second compound 1 µM, first compound 0.0316 µM
[20] = second compound 1 µM, first compound 0.1 µM
[21] = second compound 1 µM, first compound 0.316 µM
[22] = second compound 1 µM, first compound 1 µM
[23] = second compound 1 µM, first compound 3.16 µM
[24] = second compound 1 µM, first compound 10 µM
[25] = second compound 3.16 µM, first compound 0.0316 µM
[26] = second compound 3.16 µM, first compound 0.1 µM
[27] = second compound 3.16 µM, first compound 0.316 µM
[28] = second compound 3.16 µM, first compound 1 µM
[29] = second compound 3.16 µM, first compound 3.16 µM
[30] = second compound 3.16 µM, first compound 10 µM
[31] = second compound 10 µM, first compound 0.0316 µM
[32] = second compound 10 µM, first compound 0.1 µM
[33] = second compound 10 µM, first compound 0.316 µM
[34] = second compound 10 µM, first compound 1 µM
[35] = second compound 10 µM, first compound 3.16 µM
[36] = second compound 10 µM, first compound 10 µM
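Also: spheroids exposed to compounds for 7 days before readout.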
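For viability, T/C in this document: 100% = DMSO vehicle wells with luminescence normalized to vehicle control.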

`CC(=O)O[C@H]1C(=O)[C@@]2(C)[C@H]([C@H](OC(=O)c3ccccc3)[C@]3(O)C[C@H](OC(=O)[C@H](O)[C@@H](NC(=O)c4ccccc4)c4ccccc4)C(C)=C1C3(C)C)[C@]1(OC(C)=O)CO[C@@H]1C[C@@H]2O` + CNC(=O)c1ccc(Nc2nc(OC3CCCC3)c3c(-c4ccc5nc(C)oc5c4)c[nH]c3n2)c(OC)c1 was tested, and the IC50 (second compound 0.0316 µM) was less than 31.6 nM, the IC50 (second compound 0.1 µM) was less than 31.6 nM and the IC50 (second compound 0.316 µM) was less than 31.6 nM. For the same compound, the IC50 (second compound 1 µM) was less than 31.6 nM, the IC50 (second compound 3.16 µM) was less than 31.6 nM and the IC50 (second compound 10 µM) was less than 31.6 nM. It also gave a viability, T/C [1] of 24.3%, a viability, T/C [2] of 9.42% and a viability, T/C [3] of 9.43%. It also gave a viability, T/C [4] of 10%, a viability, T/C [5] of 13.3% and a viability, T/C [6] of 16.3%. For the same compound, the viability, T/C [7] was 37.8%, the viability, T/C [8] was 32.8% and the viability, T/C [9] was 35.9%. The viability, T/C [10] was 29.6%, the viability, T/C [11] was 43.8% and the viability, T/C [12] was 42.9%. For the same compound, the viability, T/C [13] was 31.6%, the viability, T/C [14] was 38% and the viability, T/C [15] was 38.3%. The viability, T/C [16] was 46.9%, the viability, T/C [17] was 51% and the viability, T/C [18] was 46.5%. The viability, T/C [19] was 22.9%, the viability, T/C [20] was 30.6% and the viability, T/C [21] was 30.7%. It also gave a viability, T/C [22] of 41.2%, a viability, T/C [23] of 41.4% and a viability, T/C [24] of 36.1%. For the same compound, the viability, T/C [25] was 24.4%, the viability, T/C [26] was 25.5% and the viability, T/C [27] was 25.1%. The viability, T/C [28] was 29.9%, the viability, T/C [29] was 26.6% and the viability, T/C [30] was 29%. It also gave a viability, T/C [31] of 20.4%, a viability, T/C [32] of 22.3% and a viability, T/C [33] of 29.6%. For the same compound, the viability, T/C [34] was 28.1%, the viability, T/C [35] was 30.5% and the viability, T/C [36] was 27.7%.

`CCc1c2c(nc3ccc(O)cc13)-c1cc3c(c(=O)n1C2)COC(=O)[C@]3(O)CC` + CNC(=O)c1ccc(Nc2nc(OC3CCCC3)c3c(-c4ccc5nc(C)oc5c4)c[nH]c3n2)c(OC)c1 was tested, and the IC50 (second compound 0.0316 µM) was 8.14 nM, the IC50 (second compound 0.1 µM) was less than 3.16 nM and the IC50 (second compound 0.316 µM) was less than 3.16 nM. For the same compound, the IC50 (second compound 1 µM) was less than 3.16 nM, the IC50 (second compound 3.16 µM) was less than 3.16 nM and the IC50 (second compound 10 µM) was less than 3.16 nM. For the same compound, the viability, T/C (second compound 0.0316 µM, first compound 0.00316 µM) was 103%, the viability, T/C (second compound 0.0316 µM, first compound 0.01 µM) was 37.1% and the viability, T/C [1] was 16.6%. It also gave a viability, T/C [2] of 5.26%, a viability, T/C [3] of 3.13% and a viability, T/C [4] of 1.53%. For the same compound, the viability, T/C (second compound 0.1 µM, first compound 0.00316 µM) was 33.4%, the viability, T/C (second compound 0.1 µM, first compound 0.01 µM) was 17.9% and the viability, T/C [7] was 12.2%. For the same compound, the viability, T/C [8] was 3.99%, the viability, T/C [9] was 2.1% and the viability, T/C [10] was 1.61%. The viability, T/C (second compound 0.316 µM, first compound 0.00316 µM) was 18.9%, the viability, T/C (second compound 0.316 µM, first compound 0.01 µM) was 15.3% and the viability, T/C [13] was 8.99%. For the same compound, the viability, T/C [14] was 3.91%, the viability, T/C [15] was 1.28% and the viability, T/C [16] was 0.35%. For the same compound, the viability, T/C (second compound 1 µM, first compound 0.00316 µM) was 14.7%, the viability, T/C (second compound 1 µM, first compound 0.01 µM) was 13.8% and the viability, T/C [19] was 4.81%. The viability, T/C [20] was 4.56%, the viability, T/C [21] was 1.55% and the viability, T/C [22] was 0.71%. The viability, T/C (second compound 3.16 µM, first compound 0.00316 µM) was 15.7%, the viability, T/C (second compound 3.16 µM, first compound 0.01 µM) was 9.15% and the viability, T/C [25] was 5.68%. For the same compound, the viability, T/C [26] was 2.4%, the viability, T/C [27] was 1% and the viability, T/C [28] was 0.27%. For the same compound, the viability, T/C (second compound 10 µM, first compound 0.00316 µM) was 17.3%, the viability, T/C (second compound 10 µM, first compound 0.01 µM) was 12.9% and the viability, T/C [31] was 6.78%. For the same compound, the viability, T/C [32] was 3.12%, the viability, T/C [33] was 1.32% and the viability, T/C [34] was 2.51%.

For `O=c1[nH]cc(F)c(=O)[nH]1` + CNC(=O)c1ccc(Nc2nc(OC3CCCC3)c3c(-c4ccc5nc(C)oc5c4)c[nH]c3n2)c(OC)c1, the IC50 (second compound 0.0316 µM) was greater than 10000 nM, the IC50 (second compound 0.1 µM) was less than 31.6 nM and the IC50 (second compound 0.316 µM) was less than 31.6 nM. It also gave an IC50 (second compound 1 µM) of less than 31.6 nM, an IC50 (second compound 3.16 µM) of less than 31.6 nM and an IC50 (second compound 10 µM) of less than 31.6 nM. It also gave a viability, T/C [1] of 84.3%, a viability, T/C [2] of 96.8% and a viability, T/C [3] of 97.1%. It also gave a viability, T/C [4] of 108%, a viability, T/C [5] of 87.3% and a viability, T/C [6] of 72.4%. The viability, T/C [7] was 44%, the viability, T/C [8] was 50% and the viability, T/C [9] was 44%. It also gave a viability, T/C [10] of 48%, a viability, T/C [11] of 41% and a viability, T/C [12] of 46.1%. The viability, T/C [13] was 29.7%, the viability, T/C [14] was 31.4% and the viability, T/C [15] was 31.2%. For the same compound, the viability, T/C [16] was 36%, the viability, T/C [17] was 35.3% and the viability, T/C [18] was 40.1%. It also gave a viability, T/C [19] of 20.1%, a viability, T/C [20] of 21% and a viability, T/C [21] of 19.4%. For the same compound, the viability, T/C [22] was 23.1%, the viability, T/C [23] was 23.8% and the viability, T/C [24] was 28.5%. It also gave a viability, T/C [25] of 16.9%, a viability, T/C [26] of 16.4% and a viability, T/C [27] of 17.8%. For the same compound, the viability, T/C [28] was 19.6%, the viability, T/C [29] was 18.6% and the viability, T/C [30] was 21.3%. It also gave a viability, T/C [31] of 21.3%, a viability, T/C [32] of 16.1% and a viability, T/C [33] of 18.2%. It also gave a viability, T/C [34] of 19.9%, a viability, T/C [35] of 18.1% and a viability, T/C [36] of 18.9%.
